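All cell lines were grown in 96-well plates and treated with compound for 48 hours. TGI: total growth inhibition.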
What was measured:
Assay in all cases: inhibition of tumour cell growth, NCI panel, 48 h
COLO 205 colon = test system: COLO 205 colon
MALME-3M melanoma = test system: MALME-3M melanoma
786-0 renal = test system: 786-0 renal
RXF 393 renal = test system: RXF 393 renal
MOLT-4 leukemia = test system: MOLT-4 leukemia
HOP-62 NSCLC = test system: HOP-62 NSCLC
M14 melanoma = test system: M14 melanoma
MDA-MB-435 = test system: MDA-MB-435
DU-145 prostate = test system: DU-145 prostate
OVCAR-3 ovarian = test system: OVCAR-3 ovarian
CCRF-CEM leukemia = test system: CCRF-CEM leukemia
SW-620 colon = test system: SW-620 colon
BT-549 breast = test system: BT-549 breast
UACC-62 melanoma = test system: UACC-62 melanoma

COc1ccc(N=Nc2c(C)c(C#N)c(=S)n(C3OC(COC(C)=O)C(OC(C)=O)C(OC(C)=O)C3OC(C)=O)c2-c2ccccc2)cc1 (stereo not drawn)
TGI (COLO 205 colon): 22.9 µM | TGI (MALME-3M melanoma): 29.9 µM | TGI (786-0 renal): 10.4 µM | TGI (RXF 393 renal): 23.7 µM | TGI (MOLT-4 leukemia): 47.9 µM | TGI (HOP-62 NSCLC): 26.5 µM | TGI (M14 melanoma): 10.7 µM | TGI (MDA-MB-435): 27.4 µM | TGI (DU-145 prostate): 19.6 µM | TGI (OVCAR-3 ovarian): 31.1 µM | TGI (CCRF-CEM leukemia): > 100 µM | TGI (SW-620 colon): 11.1 µM | TGI (BT-549 breast): 17.6 µM

CC1(C)O[C@H]2[C@@H]3N=C(c4ccccc4)O[C@@H]3C=C[C@H]2O1
TGI (COLO 205 colon): > 100 µM | TGI (UACC-62 melanoma): > 100 µM | TGI (786-0 renal): > 100 µM | TGI (MOLT-4 leukemia): > 100 µM | TGI (HOP-62 NSCLC): > 100 µM | TGI (M14 melanoma): > 100 µM | TGI (MDA-MB-435): > 100 µM | TGI (DU-145 prostate): > 100 µM | TGI (OVCAR-3 ovarian): > 100 µM | TGI (CCRF-CEM leukemia): > 100 µM | TGI (SW-620 colon): > 100 µM | TGI (BT-549 breast): > 100 µM

CC(=O)N1C(C(=O)NNc2ccccc2)CSC1c1ccccc1 (stereo not drawn)
TGI (COLO 205 colon): > 100 µM | TGI (MALME-3M melanoma): > 100 µM | TGI (UACC-62 melanoma): 61.8 µM | TGI (786-0 renal): > 100 µM | TGI (MOLT-4 leukemia): > 100 µM | TGI (HOP-62 NSCLC): > 100 µM | TGI (M14 melanoma): > 100 µM | TGI (MDA-MB-435): > 100 µM | TGI (DU-145 prostate): > 100 µM | TGI (OVCAR-3 ovarian): > 100 µM | TGI (CCRF-CEM leukemia): > 100 µM | TGI (SW-620 colon): > 100 µM | TGI (BT-549 breast): > 100 µM

CC(C)/C(Cl)=N\OC(=O)Nc1ccc(F)c([N+](=O)[O-])c1
TGI (COLO 205 colon): 4.36 µM | TGI (MALME-3M melanoma): 3 µM | TGI (UACC-62 melanoma): 39.1 µM | TGI (786-0 renal): 7.87 µM | TGI (RXF 393 renal): 33 µM | TGI (MOLT-4 leukemia): 4.94 µM | TGI (HOP-62 NSCLC): 32 µM | TGI (M14 melanoma): > 32.4 µM | TGI (MDA-MB-435): 26 µM | TGI (DU-145 prostate): 32.8 µM | TGI (OVCAR-3 ovarian): 27.2 µM | TGI (SW-620 colon): 7.56 µM | TGI (BT-549 breast): 27 µM

CC(=O)OCC1OC(n2c3c(cc(C#N)c2=S)CCCCCC3)C(OC(C)=O)C(OC(C)=O)C1OC(C)=O (stereo not drawn)
TGI (COLO 205 colon): > 100 µM | TGI (MALME-3M melanoma): > 100 µM | TGI (UACC-62 melanoma): > 100 µM | TGI (786-0 renal): > 100 µM | TGI (RXF 393 renal): > 100 µM | TGI (MOLT-4 leukemia): > 100 µM | TGI (HOP-62 NSCLC): > 100 µM | TGI (M14 melanoma): > 100 µM | TGI (MDA-MB-435): > 100 µM | TGI (DU-145 prostate): > 100 µM | TGI (OVCAR-3 ovarian): > 100 µM | TGI (CCRF-CEM leukemia): > 100 µM | TGI (BT-549 breast): > 100 µM

O=c1c2ccccc2c2c1c1c3ccccc3c(=O)c1c1c3ccccc3c(=O)c21
TGI (COLO 205 colon): > 100 µM | TGI (MALME-3M melanoma): > 100 µM | TGI (UACC-62 melanoma): > 100 µM | TGI (786-0 renal): > 100 µM | TGI (MOLT-4 leukemia): > 100 µM | TGI (HOP-62 NSCLC): > 100 µM | TGI (M14 melanoma): > 100 µM | TGI (MDA-MB-435): > 100 µM | TGI (DU-145 prostate): > 100 µM | TGI (OVCAR-3 ovarian): > 100 µM | TGI (CCRF-CEM leukemia): > 100 µM | TGI (SW-620 colon): > 100 µM | TGI (BT-549 breast): > 100 µM

COc1ccc(N2CCN(Cc3c(C(C)=O)[n+](=O)c4ccccc4n3[O-])CC2)cc1
TGI (COLO 205 colon): > 100 µM | TGI (MALME-3M melanoma): 60.6 µM | TGI (UACC-62 melanoma): > 100 µM | TGI (786-0 renal): > 100 µM | TGI (RXF 393 renal): 83.4 µM | TGI (HOP-62 NSCLC): > 100 µM | TGI (M14 melanoma): > 100 µM | TGI (MDA-MB-435): > 100 µM | TGI (DU-145 prostate): > 100 µM | TGI (OVCAR-3 ovarian): > 100 µM | TGI (CCRF-CEM leukemia): > 100 µM | TGI (SW-620 colon): > 100 µM | TGI (BT-549 breast): 53.3 µM

COc1ccc(/C=C(\C(=O)OCC(C)C)c2ccc(OC)c(OC)c2)cc1OC
TGI (COLO 205 colon): > 100 µM | TGI (UACC-62 melanoma): > 100 µM | TGI (786-0 renal): > 100 µM | TGI (RXF 393 renal): > 100 µM | TGI (MOLT-4 leukemia): > 100 µM | TGI (HOP-62 NSCLC): > 100 µM | TGI (M14 melanoma): > 100 µM | TGI (MDA-MB-435): > 100 µM | TGI (DU-145 prostate): > 100 µM | TGI (OVCAR-3 ovarian): > 100 µM | TGI (CCRF-CEM leukemia): > 100 µM | TGI (SW-620 colon): > 100 µM | TGI (BT-549 breast): > 100 µM

COc1cc(S(=O)(=O)Nc2ccc(-c3csc(N4C(=O)C(C)SC4c4ccccc4O)n3)cc2)ccc1Cl (stereo not drawn)
TGI (COLO 205 colon): 57 µM | TGI (MALME-3M melanoma): 35.5 µM | TGI (UACC-62 melanoma): > 100 µM | TGI (786-0 renal): > 100 µM | TGI (MOLT-4 leukemia): > 100 µM | TGI (HOP-62 NSCLC): > 100 µM | TGI (M14 melanoma): > 100 µM | TGI (MDA-MB-435): > 100 µM | TGI (DU-145 prostate): > 100 µM | TGI (OVCAR-3 ovarian): > 100 µM | TGI (CCRF-CEM leukemia): > 100 µM | TGI (SW-620 colon): > 100 µM | TGI (BT-549 breast): > 100 µM

O=C(O)CSc1nnc(CCCCCCCCc2nnc(SCC(=O)O)o2)o1
TGI (COLO 205 colon): > 100 µM | TGI (MALME-3M melanoma): > 100 µM | TGI (UACC-62 melanoma): > 100 µM | TGI (786-0 renal): > 100 µM | TGI (RXF 393 renal): > 100 µM | TGI (MOLT-4 leukemia): > 100 µM | TGI (HOP-62 NSCLC): > 100 µM | TGI (M14 melanoma): > 100 µM | TGI (MDA-MB-435): > 100 µM | TGI (DU-145 prostate): > 100 µM | TGI (CCRF-CEM leukemia): > 100 µM | TGI (SW-620 colon): > 100 µM | TGI (BT-549 breast): > 100 µM

CNC(=O)c1n[nH]n(Cc2ccccc2)c1=S
TGI (COLO 205 colon): > 100 µM | TGI (UACC-62 melanoma): > 100 µM | TGI (786-0 renal): > 100 µM | TGI (RXF 393 renal): > 100 µM | TGI (MOLT-4 leukemia): > 100 µM | TGI (HOP-62 NSCLC): > 100 µM | TGI (M14 melanoma): > 100 µM | TGI (MDA-MB-435): > 100 µM | TGI (DU-145 prostate): > 100 µM | TGI (OVCAR-3 ovarian): > 100 µM | TGI (CCRF-CEM leukemia): > 100 µM | TGI (SW-620 colon): > 100 µM | TGI (BT-549 breast): > 100 µM

O=Cc1[nH]c(=O)[nH]c(=O)c1CCl
TGI (COLO 205 colon): > 100 µM | TGI (MALME-3M melanoma): > 100 µM | TGI (UACC-62 melanoma): > 100 µM | TGI (786-0 renal): > 100 µM | TGI (RXF 393 renal): > 100 µM | TGI (MOLT-4 leukemia): > 100 µM | TGI (HOP-62 NSCLC): > 100 µM | TGI (MDA-MB-435): > 100 µM | TGI (DU-145 prostate): > 100 µM | TGI (OVCAR-3 ovarian): > 100 µM | TGI (CCRF-CEM leukemia): > 85.8 µM | TGI (SW-620 colon): > 100 µM | TGI (BT-549 breast): > 100 µM

Cn1c(=O)c2nc3nnc(C#N)c(N)n3c2n(C)c1=O
TGI (COLO 205 colon): > 100 µM | TGI (MALME-3M melanoma): 81.2 µM | TGI (UACC-62 melanoma): > 100 µM | TGI (786-0 renal): > 100 µM | TGI (RXF 393 renal): > 100 µM | TGI (MOLT-4 leukemia): > 100 µM | TGI (HOP-62 NSCLC): > 100 µM | TGI (M14 melanoma): > 100 µM | TGI (MDA-MB-435): > 100 µM | TGI (DU-145 prostate): > 100 µM | TGI (OVCAR-3 ovarian): > 100 µM | TGI (CCRF-CEM leukemia): > 100 µM | TGI (BT-549 breast): > 100 µM

Reference: PubChem BioAssay (NCI)
